One assay concerns the target T1, BCR-KIT BaF3 cells (Homo sapiens, UniProt P10721).
T1 construct: fused on or other part: P11274 (Breakpoint cluster region protein)
Kind of assay: BaF3 BCR-KIT cell proliferation assay (ATPlite). Format: cell-based. The note with it: read-out: Inhibition of Cell Proliferation IC50, BCR/BaF3 Kit. The procedure:
Compounds are assessed in a variety of cell based assays. For example BaF3 cells engineered with any of BCR-FMS, BCR-KIT, BCR-FLT3, BCR-NTRK1, BCR-NTRK2, and BCR-NTRK3, are used in cell proliferation assays to assess inhibitory activity of Fms, Kit, Flt-3, TrkA, TrkB, and TrkC, respectively. An MV-4-11 (leukemia) cell proliferation assay is used to assess inhibitory activity in Flt-3, and SKNSH (human neuroblastoma) cell proliferation assay is used to assess efficacy of Fms/Trk inhibitors. Additional cells may be assayed similarly to assess the efficacy of Fms/Trk inhibitors, such as MiaPaCa (human pancreatic cancer) and Capan-1 (human pancreatic carcinoma) cells. Reagent and assay conditions are as follows: • BaF3 cells: • Maintained in RPMI containing 10% FBS, 1% PenStrep, 1% NEAA, and 1% L-Glutamine, supplemented with 1 mg/mL G418 and 5% WEHI-CM (or recombinant murine IL-3). • Confluent cells are split 1:50 to 1:100 every 3-4 days. • MV-4-11 cells: • Maintained in Iscove's Modified Dulbecco's Medium containing 10% FBS. • Confluent cells are split 1:4 every 3-4 days. • SKNSH cells: RPMI containing 10% FBS. On day 1, cells are counted, then centrifuged in a conical tube for 5 minutes at 1000 rpm. The supernatant is removed and cells are re-suspended as follows: • BaF3: resuspend in growth media +1 mg/mL G418 (without WEHFIL-3) to 2×10^5 cells/mL. • MV-4-11: resuspend in growth media to 5×10^5 cells/mL. • SKNSH: resuspend in growth media to 2×10^4 cells/mL. The cells are plated (50 μL, 150 μL for SKNSH cells) in each well of a 96-well dish (Corning 3610) and incubated at 37° C. in 5% CO2 overnight, cells plated to a final concentration of cells as follows: • BaF3: 10,000 cells per well. • MV-4-11: 25,000 cells per well. • SKNSH: 3,000 cells per well. On day 2, compound at a maximum concentration of 5 mM is serially diluted 1:3 for a total of 8 point titration with DMSO as a control. A 1 μL aliquot of each dilution point is added to 249 μL growth media and 50 μL is added to a well containing cells, providing 10 μM compound for the maximum concentration point. The cells are incubated for 3 days at 37° C. in 5% CO2. For SKNSH cells, a 0.75 μL aliquot of appropriate dilution in DMSO is added to 150 μL of cells. On day 5, ATPlite 1 step Luminescence Assay System (Perkin Elmer #6016739) is brought to room temperature along with the cell cultures. ATPlite is added to each well as follows: • BaF3: 25 μL per well. • MV-4-11: 40 μL per well. • SKNSH: 20 μL per well. The cells are incubated at room temperature for 10 minutes, then luminescence is read on Safire reader. The measured luminescence correlates directly with cell number, such that the reading as a function of compound concentration is used to determine the IC50 value.
It is understood that the results of these assays may vary as assay conditions are varied. Inhibition levels determined under the conditions described herein represent a relative activity for the compounds tested under the specific conditions employed. The cell based assays are likely to show variability due to the complexity of the system and the sensitivity thereof to any changes in the assay conditions. […] Results for compounds that are tested and show substantially no inhibition below the highest tested concentration are represented as “-” in the tables below. In some instances, the compounds were not tested in all of the assays, or assay results were not valid, as indicated by NA in the tables below.
On the technique in general: In ATP-based viability assays light output follows the ATP content of the culture.

A further assay addresses T2, CYP1A2 (Homo sapiens, UniProt P05177).
T2 sequence (P05177 1-516): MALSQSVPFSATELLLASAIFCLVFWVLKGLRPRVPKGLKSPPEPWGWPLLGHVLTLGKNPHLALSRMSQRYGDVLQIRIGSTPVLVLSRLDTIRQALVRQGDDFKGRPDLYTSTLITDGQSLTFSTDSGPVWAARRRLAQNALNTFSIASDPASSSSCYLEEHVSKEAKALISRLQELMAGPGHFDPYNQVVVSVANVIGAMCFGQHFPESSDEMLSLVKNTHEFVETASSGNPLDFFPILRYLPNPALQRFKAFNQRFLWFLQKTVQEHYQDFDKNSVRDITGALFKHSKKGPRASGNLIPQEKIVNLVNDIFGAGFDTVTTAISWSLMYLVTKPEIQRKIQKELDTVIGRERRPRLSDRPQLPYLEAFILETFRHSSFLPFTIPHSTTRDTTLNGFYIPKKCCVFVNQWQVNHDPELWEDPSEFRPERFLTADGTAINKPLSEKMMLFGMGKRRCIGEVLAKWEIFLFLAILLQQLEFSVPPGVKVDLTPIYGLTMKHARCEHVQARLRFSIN
Kind of assay: CYP1A2 inhibition (fluorescent substrate CEC). Format: in vitro ADME. The note with it: read-out: Cyp IC50 1A2. The procedure:
CYP (Cytochrome P450) enzymes are the major drug metabolizing enzymes present in the liver. The inhibition of CYP enzyme activity (IC50) for each of CYP1A2, CYP2C19, CYP2C9, CYP2D6, CYP3A4(BFC) and CYP3A4(BQ) is determined for compounds, where inhibition of metabolism of a known substrate leads to a decrease in the fluorescence of the metabolized product. The fluorescence of the product is monitored as a function of compound concentration. Compounds are dissolved in DMSO to a concentration of 100 mM. These are diluted 1 μL into 82 μL of acetonitrile. An 11 μL aliquot of this solution is then added to 204 μL of cofactor mix (1.3% NADPH Regeneration system Solution A, 1.04% NADPH Regeneration system Solution B from BD Biosciences, 5% acetonitrile and 0.05% DMSO). These are then serially diluted 1:1 (160 μL to 160 μL co-factor mix) for a total of 10 points. A 10 μL aliquot of this final mixture is dispensed into 384 well assay plates and incubated for 10 minutes at 37° C. […] Assay plates are incubated at 37° C. (CYP1A2-15 min; CYP2C9-45 min; CYP2C19, 2D6 and 3A4-30 min) and read in a Tecan Safire 2 plate reader (CYP1A2, 2C19 and 3A4 409 ex/460 em; CYP2C9 and 2D6 409 ex/530 em). The signal versus compound concentration is used to determine the IC50. The enzymes and substrates for this assay are obtained from BD Biosciences.

T1 sequence (P10721 589-937): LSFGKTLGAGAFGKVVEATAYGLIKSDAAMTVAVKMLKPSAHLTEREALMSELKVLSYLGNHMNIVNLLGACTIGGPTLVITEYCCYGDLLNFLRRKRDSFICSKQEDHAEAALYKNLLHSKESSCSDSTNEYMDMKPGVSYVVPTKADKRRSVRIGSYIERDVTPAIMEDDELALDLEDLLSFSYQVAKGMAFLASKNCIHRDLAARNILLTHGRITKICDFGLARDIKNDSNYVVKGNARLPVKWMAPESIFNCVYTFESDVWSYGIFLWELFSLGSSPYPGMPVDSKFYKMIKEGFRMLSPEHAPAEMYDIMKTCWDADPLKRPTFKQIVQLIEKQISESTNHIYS

Regarding `COc1ccc(Nc2ccc(C(=O)c3c[nH]c4ncnc(NC5CCCC5)c34)c(F)n2)cn1` [Compound P-4075, [4-(cyclopentylamino)-7H-pyrrolo[2,3-d]pyrimidin-5-yl]-[2-fluoro-6-[(6-methoxy-3-pyridyl)amino]-3-pyridyl]methanone], the IC50 at BCR-KIT BaF3 cells is < 100 nM; at CYP1A2, > 10000 nM.

For the compound `COc1ccc(Nc2ccc(C(=O)c3c[nH]c4ncnc(NC5CCCCC5)c34)c(F)n2)cn1` [Compound P-4082, [4-(cyclohexylamino)-7H-pyrrolo[2,3-d]pyrimidin-5-yl]-[2-fluoro-6-[(6-methoxy-3-pyridyl)amino]-3-pyridyl]methanone], the IC50 at BCR-KIT BaF3 cells was < 100 nM; at CYP1A2, > 10000 nM.

For `CCc1ccc(Nc2ccc(C(=O)c3c[nH]c4ncnc(NCC(C)C)c34)c(F)n2)cn1` [Compound P-4121, [6-[(6-ethyl-3-pyridyl)amino]-2-fluoro-3-pyridyl]-[4-(isobutylamino)-7H-pyrrolo[2,3-d]pyrimidin-5-yl]methanone], the IC50 is < 100 nM on BCR-KIT BaF3 cells and > 10000 nM on CYP1A2.

In the case of `CCCNc1ncnc2[nH]cc(C(=O)c3ccc(Nc4ccc(CC)nc4)nc3F)c12` [Compound P-4122, [6-[(6-ethyl-3-pyridyl)amino]-2-fluoro-3-pyridyl]-[4-(propylamino)-7H-pyrrolo[2,3-d]pyrimidin-5-yl]methanone], the IC50 was < 100 nM at BCR-KIT BaF3 cells and > 10000 nM on CYP1A2.

With `CCc1ccc(Nc2ccc(C(=O)c3c[nH]c4ncnc(NC)c34)c(F)n2)cn1` [Compound P-4124, [6-[(6-ethyl-3-pyridyl)amino]-2-fluoro-3-pyridyl]-[4-(methylamino)-7H-pyrrolo[2,3-d]pyrimidin-5-yl]methanone], the results for the IC50 on BCR-KIT BaF3 cells and at CYP1A2 were < 100 nM and < 5000 nM, respectively.

`CNc1ncnc2[nH]cc(C(=O)c3ccc(Nc4cncc(OC)c4)nc3F)c12` [Compound P-4108, [2-fluoro-6-[(5-methoxy-3-pyridyl)amino]-3-pyridyl]-[4-(methylamino)-7H-pyrrolo[2,3-d]pyrimidin-5-yl]methanone]: the IC50 at BCR-KIT BaF3 cells is > 1000 nM; on CYP1A2 it was < 5000 nM.

As to `CCCCNc1ncnc2[nH]cc(C(=O)c3ccc(Nc4ccc(CC)nc4)nc3F)c12` [Compound P-4100, [4-(butylamino)-7H-pyrrolo[2,3-d]pyrimidin-5-yl]-[6-[(6-ethyl-3-pyridyl)amino]-2-fluoro-3-pyridyl]methanone], the results for the IC50 on BCR-KIT BaF3 cells and on CYP1A2 were < 1000 nM and < 5000 nM, respectively.

As for `CC(C)Nc1ncnc2[nH]cc(C(=O)c3ccc(NC4CCCCC4)nc3F)c12` [Compound P-4101, [6-(cyclohexylamino)-2-fluoro-3-pyridyl]-[4-(isopropylamino)-7H-pyrrolo[2,3-d]pyrimidin-5-yl]methanone], the IC50 at BCR-KIT BaF3 cells was < 1000 nM; at CYP1A2, > 10000 nM.

Turning to `O=C(c1ccc(NC2CCC(F)(F)CC2)nc1)c1c[nH]c2ncnc(NC3CC3)c12` [Compound P-4088, [4-(cyclopropylamino)-7H-pyrrolo[2,3-d]pyrimidin-5-yl]-[6-[(4,4-difluorocyclohexyl)amino]-3-pyridyl]methanone], the IC50 at BCR-KIT BaF3 cells is < 1000 nM; on CYP1A2 it was > 10000 nM.

As for `Fc1cc(Cc2c[nH]c3ncnc(NC4CC4)c23)cnc1NC1CCC(F)(F)CC1` [Compound P-4127, N-cyclopropyl-5-[[6-[(4,4-difluorocyclohexyl)amino]-5-fluoro-3-pyridyl]methyl]-7H-pyrrolo[2,3-d]pyrimidin-4-amine], the IC50 on BCR-KIT BaF3 cells was < 100 nM; on CYP1A2 it was > 10000 nM.

`COc1ccc(Nc2ccc(C(=O)c3c[nH]c4ncnc(N[C@@H](C)c5ccc(F)cc5)c34)c(F)n2)cn1` [Compound P-4072, [2-fluoro-6-[(6-methoxy-3-pyridyl)amino]-3-pyridyl]-[4-[[(1S)-1-(4-fluorophenyl)ethyl]amino]-7H-pyrrolo[2,3-d]pyrimidin-5-yl]methanone]: the IC50 is < 1000 nM on BCR-KIT BaF3 cells and > 10000 nM at CYP1A2.

On to `O=C(c1ccc(Nc2ccc(C3CC3)nc2)nc1F)c1c[nH]c2ncnc(NCC(F)(F)F)c12` [Compound P-4090, [6-[(6-cyclopropyl-3-pyridyl)amino]-2-fluoro-3-pyridyl]-[4-(2,2,2-trifluoroethylamino)-7H-pyrrolo[2,3-d]pyrimidin-5-yl]methanone], for which the IC50 on BCR-KIT BaF3 cells is < 1000 nM; on CYP1A2, > 10000 nM.

Regarding `COc1ccc(Nc2ccc(C(=O)c3c[nH]c4ncnc(NC(C)(C)C)c34)c(F)n2)cn1` [Compound P-4055, [4-(tert-butylamino)-7H-pyrrolo[2,3-d]pyrimidin-5-yl]-[2-fluoro-6-[(6-methoxy-3-pyridyl)amino]-3-pyridyl]methanone], the IC50 was > 1000 nM on BCR-KIT BaF3 cells and < 10000 nM at CYP1A2.

Consider `COc1cncc(Nc2ccc(C(=O)c3c[nH]c4ncnc(NCC(F)(F)F)c34)c(F)n2)c1` [Compound P-4103, [2-fluoro-6-[(5-methoxy-3-pyridyl)amino]-3-pyridyl]-[4-(2,2,2-trifluoroethylamino)-7H-pyrrolo[2,3-d]pyrimidin-5-yl]methanone], for which the IC50 on BCR-KIT BaF3 cells was > 1000 nM; on CYP1A2 it was < 5000 nM.

Consider `CNc1ncnc2[nH]cc(C(=O)c3ccc(Nc4ccc(OC)nc4)nc3F)c12` [Compound P-4083, [2-fluoro-6-[(6-methoxy-3-pyridyl)amino]-3-pyridyl]-[4-(methylamino)-7H-pyrrolo[2,3-d]pyrimidin-5-yl]methanone], for which the IC50 at BCR-KIT BaF3 cells was < 100 nM; at CYP1A2, > 10000 nM.

`CC1CCC(Nc2ncc(Cc3c[nH]c4ncc(Cl)cc34)cn2)CC1` (centres unmarked) [Compound P-3009, [5-(5-Chloro-1H-pyrrolo[2,3-b]pyridin-3-ylmethyl)-pyrimidin-2-yl]-(4-methyl-cyclohexyl)-amine]: the IC50 on BCR-KIT BaF3 cells was > 1000 nM; at CYP1A2, > 10000 nM.

The values are drawn from patent publication US8901118B2, “Compounds and methods for kinase modulation, and indications therefor” (Plexxikon Inc., priority 2010, dated 2014).
